Values quoted from earlier work in patent publication US9314419B2, “Oral care compositions with a reduced bitter taste perception” (The Procter & Gamble Company, priority 2014, dated 2016).

Details: concentration level where the cooling effect can be clearly recognized

Row | Compound | cooling threshold
1 | CC(C)[C@@H]1CC[C@@H](C)C[C@@H]1O [d-neomenthol] | about 25,000 ppb
2 | CC(C)[C@@H]1CC[C@@H](C)C[C@@H]1O [Example 1-neomenthol, 1-neomenthol] | about 3,000 ppb
3 | CC(C)[C@@H]1CC[C@@H](C)C[C@H]1O [L-menthol] | about 800 ppb
